These results are taken from publication PMC12884720, “Gabpα‐Pparγ Complex Determines Glycolytic Capacity and Lactic Acid Homeostasis in Brown Fat” (Advanced Science, 2025).

One assay has as its system Gabpα‐Pparγ complex. In words: SPR competitive binding assay, GPCBi on Gabpα and Pparγ interaction. As to conditions: equal concentration of Gabpα and different concentrations of GPCBi over immobilized Pparγ (Figure 4b). How it is done: SPR analysis was performed using a Biacore T200 system (Cytiva) equipped with a Series S Sensor Chip CM5. Briefly, the ligand Pparγ protein was immobilized to the CM5 Chip via covalent bonds to the amino acid residues in immobilization buffer. Subsequently, different concentrations of Gabpα were diluted in the analyte buffer and were injected into the flowing channel to allow interaction between Pparγ and Gabpα. For a competitive binding assay, an equal concentration of Gabpα and different concentrations of GPCBi were injected into the flowing channel to examine the effect of the interaction between Pparγ and Gabpα. The interacting phase included 120 s of the association phase and 200 s of the dissociation phase. The data were analyzed in a Biacore T200 Evaluation Software (Cytiva).

Another assay deals with Gabpα–Pparγ interaction. In words: Co-IP of His-Gabpα and Myc-Pparγ with peptide GPCBi. The assay is classed as binding. The note with it: HEK293T cells cotransfected with His‐Gabpα and Myc‐Pparγ, GPCBi 30 µM, 48 h, anti‐His IP (Figure S4c).
In a further assay the test system is Eno1 promoter. In words: Luciferase reporter assay, Eno1-Luc activated by Gabpα and Pparγ/Rxrα. It is filed as cell-based, human. As to conditions: HEK293T cells, GPCBi 3 µM, n = 3 (Figure 4g). The protocol: HEK293T cells were transfected with 100 ng of Pparγ and 100 ng of Rxrα or empty vector together with 100 ng of Gabpα plasmid or the C‐terminal truncation mutants and 200 ng of Eno1 luciferase reporter plasmid in 24‐well plates via Lipofectamine reagent (Yeasen, Shanghai, China, Cat# 40802ES03). For the experiments with the peptides GPCBi or T0070907, the additional peptides GPCBi (3 µM) or T0070907 (10 µM) were added to the HEK293T cells one day after the plasmid complex was transfected. After 48 h of transfection, luciferase activity was measured via the Dual‐Luciferase Reporter Assay System (Vazyme Biotech., Nanjing, China; Cat# DL101‐01). Firefly luciferase reporter gene measurements were normalized to Renilla luciferase activity.
A general note: A reporter such as luciferase makes a cellular process visible.

The next assay concerns wild‐type mice. In words: Oxygen consumption and heat production (CLAMS). The assay is classed as in vivo, wild‐type C57BL/6J mice. As to conditions: GPCBi‐injected mice, room temperature, n = 4 (Figure 4n,o; Figure S4i,j). The protocol: The mouse experiments were approved by the Institutional Animal Care and Use Committee of the Institute of Model Animals of Tongji Hospital, Huazhong University of Science and Technology, and were performed in compliance with all relevant ethical regulations (approval number: TJH‐202110044). Unless otherwise noted, the mice were housed in a pathogen‐free and climate‐controlled environment (22–25 °C, 40‐60% humidity) and were given free access to food and water on a 12 h light/dark cycle. Wild‐type C57BL/6J mice were obtained from Beijing Huafukang Bioscience Co., Ltd. (Beijing, China). Gabpa ^flox/flox , Adipoq^Cre , and Ucp1^Cre mice were purchased from Cyagen Biosciences, Inc. (Guangzhou, China). For GPCBi treatment, wild‐type mice were orthotopically injected GPCBi (FITC‐[…]; 5.5 mg kg^−1) or scramble peptide (FITC‐[…]; 5.5 mg kg^−1) into the BAT at room temperature for one week. […] Body weight was measured every week, and tissue weights were measured at the time of euthanasia.
Three‐month‐old mice (Gabpα ^Ucp1 KO, Gabpα ^Adipo KI, peptide GPCBi, and respective littermate control mice) were subjected to whole‐body energy expenditure measurements in metabolic chambers. Oxygen consumption and heat production were monitored via a Comprehensive Laboratory Animal Monitoring System (CLAMS, Columbus Instruments) at specific temperatures. […]

In assay [1] the test system is differentiated iBAT‐SVF cells. Briefly: Lactate levels in differentiated iBAT-SVF cells. The assay is classed as cell-based, C57BL/6 mice. As to conditions: GPCBi 5 µM. How it is done: Interscapular BAT‐SVF cells were obtained from eight‐week‐old male C57BL/6 mice. Briefly, BAT was excised, washed in PBS, minced, and digested at 37 °C for 40 min in Hanks solution containing type II collagenase (Sigma, Cat# C‐6885) and 4% bovine serum albumin (BSA). The tissue homogenates were filtered through a 70 µm cell strainer and centrifuged at 1000 rpm for 5 min. The cell pellet was resuspended in DMEM supplemented with 10% FBS (Sigma–Aldrich) and 1% penicillin/streptomycin (P/S) at 37 °C with 5% CO2. The next day, BAT‐SVF cells were immortalized with the SV40 large T antigen according to a published protocol.^[ [32] ^] For iBAT‐SVF cell differentiation, confluent SVF cells were induced to differentiate with medium containing 0.5 mM isobutylmethylxanthine (Sigma, Cat# I‐5879), 125 µM indomethacin (Sigma, Cat# I‐7378), 2 µg mL^−1 dexamethasone (Sigma, Cat# D‐1756), 5 µg mL^−1 insulin (Solarbio, Cat# I‐8040), 1 nM triiodo‐L‐thyronine (Sigma, Cat# T‐2877), and 1 µM rosiglitazone (Cayman, Cat# 71740‐100). After 48 h, the induction medium was replaced with a maintenance cocktail (5 µg mL^−1 insulin, 1 nM triiodo‐L‐thyronine, and 1 µM rosiglitazone) until 6 to 8 days after the induction of differentiation.
Brown fat was homogenized with lysis buffer, ultrasonographically treated on ice at 300 W (on for 3 s, off for 7 s) for 2 min, and then centrifuged at 4 °C at 12 000 × g for 10 min. […] All protocols were followed in accordance with the manufacturer's guidelines.

SMILES strings stand for the structures. Residues, ends and D or L forms follow the SMILES beside them. *: point of attachment. FITC = O=C1OC2(c3ccc(O)cc3Oc3cc(O)ccc32)c2ccc(NC(=S)*)cc21

On to `CC[C@H](C)[C@H](NC(=O)[C@H](CCCNC(=N)N)NC(=O)[C@H](CS)NC(=O)[C@H](CC(N)=O)NC(=O)[C@H](CC(C)C)NC(=O)[C@H](CC(=O)O)NC(=O)[C@H](CS)NC(=O)[C@H](CCCNC(=N)N)NC(=O)[C@H](CC(=O)O)NC(=O)[C@H](Cc1ccc(O)cc1)NC(=O)[C@@H](NC(=O)[C@H](CC(C)C)NC(=O)[C@H](CCCCN)NC(=O)[C@H](CC(C)C)NC(=O)[C@H](CCCNC(=N)N)NC(=O)[C@@H](NC(=O)[C@@H](NC(=O)[C@H](CCCNC(=N)N)NC(=O)[C@H](CCCNC(=N)N)NC(=O)[C@H](CCCNC(=N)N)NC(=O)[C@H](CCCNC(=N)N)NC(=O)[C@H](CCCNC(=N)N)NC(=O)[C@H](CCC(N)=O)NC(=O)[C@H](CCCNC(=N)N)NC(=O)[C@H](CCCNC(=N)N)NC(=O)[C@H](CCCCN)NC(=O)[C@H](CCCCN)NC(=O)[C@H](CCCNC(=N)N)NC(=O)CNC(=O)[C@H](Cc1ccc(O)cc1)NC(=S)Nc1ccc2c(c1)C(=O)OC21c2ccc(O)cc2Oc2cc(O)ccc21)[C@@H](C)O)[C@@H](C)CC)[C@@H](C)CC)C(=O)N[C@@H](Cc1c[nH]cn1)C(=O)N[C@@H](CCCCN)C(=O)N[C@@H](CCCCN)C(=O)N[C@@H](CO)C(=O)N[C@@H](CCCNC(=N)N)C(=O)N[C@@H](CC(N)=O)C(=O)N[C@@H](CCCCN)C(=O)O` [GPCBi] ({FITC}-YGRKKRRQRRRRRTIRLKLIYDRCDLNCRIHKKSRNK-OH; N-terminus and C-terminus assumed), for which the “effect on Gabpα affinity toward Pparγ” value with Gabpα‐Pparγ complex is recorded as “dose‐dependently attenuated this interaction”. The “binding capacity between Gabpα and Pparγ” value in the assay with Gabpα–Pparγ interaction is “decreased”. For the same compound, the “Gabpα‐Pparγ complex‐mediated activation of the Eno1 promoter” value with Eno1 promoter is “suppressed”. The “oxygen consumption and heat production” value in the assay with wild‐type mice is “significant decreases”. In addition, the “intracellular lactate levels in brown adipocytes” value in assay [1] (first 2 days of adipogenic differentiation (Figure 5l)) was “decreased”. Besides, the “lactate level in GPCBi‐treated brown adipocytes” value in assay [1] (first 2 days of adipogenic differentiation, versus scramble peptide, without Enoblock (Figure 5o)) is on record as “reduced”.
